The values below come from ChEMBL document CHEMBL5233262, “Anti-inflammatory activity of naturally occuring diarylheptanoids - A review” (Bioorg Med Chem, 2021).

Values after ≈ are worked out from the molar mass of the structure shown. Bounds are passed on as bounds.

Series [1] deals with RAW264.7. As to the kind of experiment: Antiinflammatory activity in mouse RAW264.7 cells assessed as inhibition of LPS-induced TNFalpha production. The format is functional, cell-based.
The subject of series [2] is RAW264.7. Nature of the series: Antiinflammatory activity in mouse RAW264.7 cells assessed as inhibition of LPS-induced NO production. The format is functional, cell-based.
Series [3] deals with Zingiber officinale. Nature of the series: Inhibition of prostaglandin biosynthesis in ginger. The format is functional, organism-based.
Series [4] relates to Mus musculus. Nature of the series: Antiinflammatory activity in TPA-induced ear edema ICR mouse model assessed as inhibition of ear inflammation at 1 ug, TOP for 30 mins followed by TPA addition and measured after 6 hrs. The format is functional. The settings on record: dose 1 µg, time 390 min, 6.5 h.
Series [5] in a line: Antiinflammatory activity in human PBMC cells assessed as inhibition of LPS-induced IL-1beta production at 25 uM incubated for 18 hrs by ELISA. The series is classed as functional. (In general: In an ELISA, binding on a coated surface is turned into a signal by an enzyme label.)
Series [6] concerns HepG2. As to the kind of experiment: Antiinflammatory activity in human HepG2 cells assessed as inhibition of LPS-induced IL-6 mRNA expression at 10 ug/ml preincubated for 1 hrs followed by LPS stimulation and measured after 24 hrs by qPCR analysis. The settings on record: time 25 hrs. The format is functional.
Series [7] relates to HepG2. Nature of the series: Antiinflammatory activity in human HepG2 cells assessed as inhibition of LPS-induced IL-1beta mRNA expression at 10 ug/ml preincubated for 1 hrs followed by LPS stimulation and measured after 24 hrs by qPCR analysis. The series is classed as functional. The settings on record: time 25 hrs. (Real-time PCR tracks product formation cycle by cycle.)

The test system of series [8] is RAW264.7. Nature of the series: Antiinflammatory activity in mouse RAW264.7 cells assessed as inhibition of LPS-induced NO production at 25 uM incubated for 24 hrs by Griess reagent based assay. The format is functional. Background: The Griess reaction detects nitrite, a stable product of nitric oxide.
Series [9] deals with HepG2. Nature of the series: Antiinflammatory activity in human HepG2 cells assessed as inhibition of LPS-induced TNFalpha mRNA expression at 10 ug/ml preincubated for 1 hrs followed by LPS stimulation and measured after 24 hrs by qPCR analysis. The format is functional. The note with it: time 25 hrs.
In series [10] the test system is RAW264.7. As to the kind of experiment: Antiinflammatory activity in mouse RAW264.7 cells assessed as inhibition of KLA-induced TNFalpha expression at 0.02 mg/ml and measured after 24 hrs by ELISA. The format is functional.
Series [11] concerns RAW264.7. As to the kind of experiment: Antiinflammatory activity in mouse RAW264.7 cells assessed as inhibition of LPS-induced iNOS mRNA expression at 25 uM incubated for 12 hrs by PCR analysis. The series is classed as functional.
Series [12] deals with RAW264.7. As to the kind of experiment: Antiinflammatory activity in mouse RAW264.7 cells assessed as inhibition of LPS-induced NO production incubated for 20 hrs by Griess reagent based microplate reader analysis. The settings on record: RAW264.7, 20 h. The series is classed as functional, cell-based.
Series [13] is described as follows: Antiinflammatory activity in human PBMC cells assessed as inhibition of LPS-induced TNFalpha production at 25 uM incubated for 18 hrs by ELISA. The format is functional.
The subject of series [14] is RAW264.7. Nature of the series: Cytotoxicity against mouse RAW264.7 cells assessed as reduction in cell viability at 0.07 to 0.1 mg/ml incubated for 24 hrs by MTT assay. The series is classed as toxicity, cell-based. The settings on record: raw264.7, 24 h, dose 0.07-0.1 mg/ml.
Series [15] relates to RAW264.7. Nature of the series: Antiinflammatory activity in mouse RAW264.7 cells assessed as inhibition of LPS-induced COX-2 mRNA expression at 25 uM incubated for 12 hrs by PCR analysis. The format is functional.
Series [16] is described as follows: Antioxidant activity assessed as hydroxyl radical scavenging activity. The series is classed as functional.
The nature of series [17]: Antioxidant activity assessed as DPPH radical scavenging activity incubated for 30 mins by spectrophotometric analysis. The series is classed as functional.
Series [18] in a line: Antioxidant activity assessed as DPPH radical scavenging activity. The series is classed as functional.
For series [19], the system named is J774.A1. As to the kind of experiment: Antiinflammatory activity in mouse J774.A1 cells assessed as inhibition of LPS-induced NO production incubated for 24 hrs by Griess reagent based analysis. The settings on record: J774.A1, 24 h. The format is functional, cell-based.
Series [20] can be described thus: Antioxidant activity assessed as ABTS radical scavenging activity measured after 6 mins. The series is classed as functional.
The nature of series [21]: Antiinflammatory activity in C57BL/6 mouse BMDC cells assessed as inhibition of imiquimod-induced IL-1beta expression level at 10 uM and measured after 12 hrs by western blot analysis. The series is classed as functional. The note with it: C57BL/6, BMDC.
The nature of series [22]: Antiinflammatory activity in C57BL/6 mouse BMDC cells assessed as inhibition of imiquimod-induced IL-12 mRNA expression level at 10 uM and measured after 12 hrs by qpCR analysis. The series is classed as functional. The note with it: C57BL/6, BMDC.
Series [23] can be described thus: Antiinflammatory activity in C57BL/6 mouse BMDC cells assessed as inhibition of imiquimod-induced IL-6 mRNA expression level at 10 uM and measured after 12 hrs by qpCR analysis. The format is functional. The note with it: C57BL/6, BMDC.
Series [24] in a line: Antiinflammatory activity in C57BL/6 mouse BMDC cells assessed as inhibition of imiquimod-induced IL-12 expression level at 10 uM and measured after 12 hrs by western blot analysis. The note with it: C57BL/6, BMDC. The series is classed as functional.
The nature of series [25]: Antiinflammatory activity in C57BL/6 mouse BMDC cells assessed as inhibition of imiquimod-induced IL-1beta mRNA expression level at 10 uM and measured after 12 hrs by qpCR analysis. The series is classed as functional. The note with it: C57BL/6, BMDC.
A short description of series [26]: Antiinflammatory activity in C57BL/6 mouse BMDC cells assessed as inhibition of imiquimod-induced IL-6 expression level at 10 uM and measured after 12 hrs by western blot analysis. The format is functional. The settings on record: C57BL/6, BMDC.
Series [27] has as its system Rattus norvegicus. As to the kind of experiment: Antiinflammatory activity in rat model of ethyl phenylpropiolate-induced ear edema assessed as reduction in ear thickness administered topically and measured after 30 mins. The note with it: 0.5 h. The series is classed as functional.
The test system of series [28] is Rattus norvegicus. Nature of the series: Antiinflammatory activity in rat model of carrageenan-induced hind paw edema assessed as reduction in paw thickness at 100 mg/kg,ip 30mins before carrageenin exposure and measured after 3 hrs. Further details: scale not given: the % may be the effect or the level left. The series is classed as functional.
In series [29] the test system is Mus musculus. As to the kind of experiment: Antiinflammatory activity in ICR mouse model of thioacetamide-induced hepatotoxicity assessed as reduction in TNF-alpha expression at 1 mg/kg,ip pretreated with compound followed by TA induction and measured after 24 hrs by RT-PCR analysis. The series is classed as functional. Further details: scale not given: the % may be the effect or the level left.

Series [30] relates to Rattus norvegicus. Nature of the series: Antiinflammatory activity in rat model of ethyl phenylpropiolate-induced ear edema assessed as reduction in ear thickness administered topically and measured after 1 hr. The series is classed as functional.

The term IC50 denotes the concentration at which inhibition is half-maximal. As a reminder, the inhibition is the percentage by which the read-out fell short of the control.

Take `COc1cc([C@@H](O)[C@@H](O)[C@@H](O)C[C@H](O)CCc2ccc(O)cc2)ccc1O`: the results for the IC50 in series [1] and in series [2] were more than 100 µM and 32.6 µg/mL (≈ 86.1 µM), respectively.

As for `COc1cc(CC/C=C/C(=O)CCc2ccccc2)ccc1O`, the IC50 in series [3] came to 50 µM; in [12] it was 0.6 µM. In series [4], the ID50 amounted to 2.2 µmol. The inhibition at 25 µM in series [5] is 85%; in [8], 50%; in series [11] it was 75.5%; in series [13], 43%; in [15], 54.6%. Further, the inhibition at 10 µg/mL in series [6] was 52%; in [7], 86%; in series [9], 85%. For the same compound, in series [10], the inhibition at 20 µg/mL amounted to 54%. In addition, the Activity in series [14] is recorded as more than 80%.

`O=C1O[C@H]([C@@H](O)CO)C(O)=C1O` [ASCORBIC ACID]: the IC50 in series [16] was 47 µg/mL (≈ 267 µM); in series [17], 24.8 µM; in series [18] it was 58 µg/mL (≈ 329 µM); in series [19] it was more than 100 µM; in series [20] it was 23.3 µM.

Consider `O=C(/C=C/C=C/c1ccc(O)cc1)CCc1ccc(O)cc1`, for which the inhibition at 10 µM was found to be 56% in series [21]; 69% in series [22]; 61% in series [23]; 31% in series [24]; 86% in series [25]; 58% in series [26].

Consider `OC(/C=C/C=C/c1ccccc1)CCc1ccccc1` (stereo not given), for which the ID50 in [27] is 129 µg; in series [30] it was 312 µg. The Activity in series [28] worked out at 39%; in series [29] it was 53%.
